Measured values reported in ChEMBL document CHEMBL3621041, “Optimization of a Novel Binding Motif to (E)-3-(3,5-Difluoro-4-((1R,3R)-2-(2-fluoro-2-methylpropyl)-3-methyl-2,3,4,9-tetrahydro-1H-pyrido[3,4-b]indol-1-yl)phenyl)acrylic Acid (AZD9496), a Potent and Orally Bioavailable Selective Estrogen Receptor Downregulator and Antagonist” (J Med Chem, 2015).
Values after ≈ are worked out from the molar mass of the structure shown. Active and inactive are the calls of the source. The rule behind the calls is not given here.

Tests used:
[1] = Intrinsic clearance in rat cryopreserved hepatocytes assessed per 10^6 cells; format: ADME, cell-based, Hepatocyte; details: read-out: CLH
[2] = molecular target: T1, Androgen receptor (Homo sapiens, UniProt P10275); assay: Binding affinity to androgen receptor (unknown origin); details: read-out: pIC50 (converted)
T1 sequence (P10275 whole entry): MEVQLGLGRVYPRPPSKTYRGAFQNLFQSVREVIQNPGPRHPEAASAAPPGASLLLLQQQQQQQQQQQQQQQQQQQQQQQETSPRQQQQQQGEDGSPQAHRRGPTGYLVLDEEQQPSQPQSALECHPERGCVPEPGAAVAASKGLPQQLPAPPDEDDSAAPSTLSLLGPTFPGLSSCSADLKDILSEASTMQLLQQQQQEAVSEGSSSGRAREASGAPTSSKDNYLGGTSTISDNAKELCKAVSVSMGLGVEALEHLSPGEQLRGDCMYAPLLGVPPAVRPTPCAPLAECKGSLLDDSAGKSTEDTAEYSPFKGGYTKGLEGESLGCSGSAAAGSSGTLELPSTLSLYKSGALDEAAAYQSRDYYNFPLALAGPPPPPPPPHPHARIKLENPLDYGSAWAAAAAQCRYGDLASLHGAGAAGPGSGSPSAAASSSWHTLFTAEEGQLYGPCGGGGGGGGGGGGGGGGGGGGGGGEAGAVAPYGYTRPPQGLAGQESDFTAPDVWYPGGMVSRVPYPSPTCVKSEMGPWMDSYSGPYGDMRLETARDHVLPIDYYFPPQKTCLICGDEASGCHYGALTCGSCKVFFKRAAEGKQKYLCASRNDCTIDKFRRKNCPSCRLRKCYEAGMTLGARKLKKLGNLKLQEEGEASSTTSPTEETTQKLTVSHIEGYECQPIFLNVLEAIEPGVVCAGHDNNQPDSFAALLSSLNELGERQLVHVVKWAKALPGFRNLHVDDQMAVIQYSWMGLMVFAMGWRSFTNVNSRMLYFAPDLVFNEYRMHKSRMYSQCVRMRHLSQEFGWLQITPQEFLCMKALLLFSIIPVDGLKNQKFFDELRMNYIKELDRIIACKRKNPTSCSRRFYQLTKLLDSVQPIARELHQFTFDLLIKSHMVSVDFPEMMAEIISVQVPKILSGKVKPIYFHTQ

[3] = Lipophilicity, log D of the compound at pH 7.4; format: physicochemical; details: buffer
[4] = molecular target: T2, Progesterone receptor (Homo sapiens, UniProt P06401); assay: Agonist activity at progesterone receptor in human MCF7 cells; format: cell-based
T2 sequence (P06401 whole entry): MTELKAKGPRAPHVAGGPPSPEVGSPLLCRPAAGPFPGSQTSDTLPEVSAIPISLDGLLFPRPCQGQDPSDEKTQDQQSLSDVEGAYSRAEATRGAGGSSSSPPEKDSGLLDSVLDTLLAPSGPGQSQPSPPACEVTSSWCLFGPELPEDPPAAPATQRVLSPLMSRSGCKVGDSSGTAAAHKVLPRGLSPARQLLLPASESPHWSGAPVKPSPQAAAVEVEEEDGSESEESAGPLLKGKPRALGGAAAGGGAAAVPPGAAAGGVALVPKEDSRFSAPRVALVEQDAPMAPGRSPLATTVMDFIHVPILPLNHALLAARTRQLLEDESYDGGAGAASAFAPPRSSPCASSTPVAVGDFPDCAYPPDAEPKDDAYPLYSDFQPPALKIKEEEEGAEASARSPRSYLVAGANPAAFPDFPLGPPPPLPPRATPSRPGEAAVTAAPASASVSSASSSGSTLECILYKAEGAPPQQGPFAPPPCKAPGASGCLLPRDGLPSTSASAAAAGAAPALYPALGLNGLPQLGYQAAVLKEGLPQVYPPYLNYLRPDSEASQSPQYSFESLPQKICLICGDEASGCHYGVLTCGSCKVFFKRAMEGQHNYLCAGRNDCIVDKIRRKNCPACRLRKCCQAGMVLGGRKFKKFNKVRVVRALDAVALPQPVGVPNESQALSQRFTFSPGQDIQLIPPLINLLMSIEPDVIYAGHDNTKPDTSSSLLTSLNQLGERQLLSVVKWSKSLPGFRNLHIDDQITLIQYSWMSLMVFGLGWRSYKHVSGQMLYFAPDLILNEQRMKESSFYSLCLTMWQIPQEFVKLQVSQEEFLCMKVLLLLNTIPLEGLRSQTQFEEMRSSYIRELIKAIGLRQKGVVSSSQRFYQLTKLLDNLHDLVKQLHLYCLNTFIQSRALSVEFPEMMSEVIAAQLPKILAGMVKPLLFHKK

[5] = molecular target: T3, Estrogen receptor (Homo sapiens, UniProt P03372)
T3 sequence (P03372 whole entry): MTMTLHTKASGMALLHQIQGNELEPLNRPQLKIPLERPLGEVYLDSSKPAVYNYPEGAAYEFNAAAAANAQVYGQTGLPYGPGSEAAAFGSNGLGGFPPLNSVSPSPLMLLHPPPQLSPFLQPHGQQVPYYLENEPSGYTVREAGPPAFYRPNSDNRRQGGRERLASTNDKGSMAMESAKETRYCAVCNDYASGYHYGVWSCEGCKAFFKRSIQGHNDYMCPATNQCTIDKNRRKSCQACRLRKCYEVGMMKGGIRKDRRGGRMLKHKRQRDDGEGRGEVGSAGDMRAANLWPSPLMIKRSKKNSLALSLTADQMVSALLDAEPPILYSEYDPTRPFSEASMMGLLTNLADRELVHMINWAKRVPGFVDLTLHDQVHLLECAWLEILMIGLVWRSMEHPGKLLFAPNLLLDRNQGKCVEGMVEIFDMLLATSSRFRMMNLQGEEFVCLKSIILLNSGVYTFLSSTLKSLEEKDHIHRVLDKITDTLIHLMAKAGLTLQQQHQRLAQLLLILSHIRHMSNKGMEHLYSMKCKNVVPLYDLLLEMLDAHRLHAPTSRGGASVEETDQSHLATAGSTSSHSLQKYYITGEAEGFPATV
Description: Antagonist activity at ERalpha receptor in human MCF7 cells

[6] = Intrinsic clearance in human cryopreserved hepatocytes assessed per 10^6 cells; format: ADME, cell-based, Hepatocyte; details: read-out: CLH
[7] = Fraction unbound in Han Wistar rat 10% plasma by equilibrium dialysis; format: ADME, cell-free
[8] = Thermodynamic solubility of the compound in 0.1 M phosphate buffer at pH 7.4 after 24 hrs; format: physicochemical; details: read-out: Therm_solubility
[9] = molecular target: T4, Glucocorticoid receptor (Homo sapiens, UniProt P04150); assay: Binding affinity to glucocorticoid receptor (unknown origin); details: read-out: pIC50 (converted)
T4 sequence (P04150 whole entry): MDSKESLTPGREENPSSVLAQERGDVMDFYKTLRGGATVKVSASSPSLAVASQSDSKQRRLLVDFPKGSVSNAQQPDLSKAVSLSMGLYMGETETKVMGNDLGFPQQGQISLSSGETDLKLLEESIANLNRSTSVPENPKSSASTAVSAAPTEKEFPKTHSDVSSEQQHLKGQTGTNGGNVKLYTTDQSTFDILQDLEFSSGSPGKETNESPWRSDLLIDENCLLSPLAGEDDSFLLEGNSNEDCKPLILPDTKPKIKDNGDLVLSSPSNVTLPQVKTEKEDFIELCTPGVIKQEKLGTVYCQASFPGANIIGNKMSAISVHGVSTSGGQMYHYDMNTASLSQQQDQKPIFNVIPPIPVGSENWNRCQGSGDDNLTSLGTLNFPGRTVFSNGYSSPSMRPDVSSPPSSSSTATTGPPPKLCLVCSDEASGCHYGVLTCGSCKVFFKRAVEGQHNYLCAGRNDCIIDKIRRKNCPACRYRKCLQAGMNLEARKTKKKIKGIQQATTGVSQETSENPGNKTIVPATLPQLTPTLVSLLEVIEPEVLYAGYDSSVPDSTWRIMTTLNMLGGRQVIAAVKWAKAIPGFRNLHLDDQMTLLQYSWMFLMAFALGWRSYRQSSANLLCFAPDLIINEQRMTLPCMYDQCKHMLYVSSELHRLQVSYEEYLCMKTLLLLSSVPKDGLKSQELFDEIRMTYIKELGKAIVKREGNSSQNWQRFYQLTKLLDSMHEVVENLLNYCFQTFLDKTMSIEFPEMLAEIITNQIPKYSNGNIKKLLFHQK

[10] = molecular target: T2, Progesterone receptor; assay: Binding affinity to progesterone receptor (unknown origin)
[11] = molecular target: T3, Estrogen receptor; remark: listed apart in the source
Description: Binding affinity to ERalpha receptor (unknown origin)

[12] = system: MCF7; assay: cells; details: Homo sapiens, MCF7, read-out: pIC50 (converted)
Description: Antiproliferative activity against human MCF7 cells

[13] = Fraction unbound in human 10% plasma by equilibrium dialysis; format: ADME, cell-free
[14] = molecular target: T5, Progesterone receptor (Homo sapiens) (UniProt P06401); assay: Agonist activity at progesterone receptor (unknown origin) at 100 uM
T5 sequence (whole entry): T2 sequence (P06401 whole entry)

[15] = Clearance in Han Wistar rat at 2 umol/kg, iv and 5 umol/kg, po; format: ADME, organism-based; details: in vivo
[16] = Oral bioavailability in Han Wistar rat at 5 umol/kg; format: ADME, organism-based; details: in vivo
[17] = Volume of distribution at steady state in Han Wistar rat at 2 umol/kg, iv and 5 umol/kg, po; format: ADME, organism-based; details: in vivo, read-out: Vdss

Compound | hepatocyte CLint [1] [µL/min/1e6 cells] | logD [3] | IC50 [4] [µM] | IC50 [5] [µM] | hepatocyte CLint [6] [µL/min/1e6 cells] | fraction unbound [7] | solubility thermodynamic at 24 h [8] [µM] | IC50 [11] [µM] | IC50 [12] [µM] | also measured
OCCN1CCc2c([nH]c3ccccc23)C1c1ccc(Cl)cc1 (racemic) | 300 | 3.7 | > 100 | 1.17 | 70 | 0.045 | 15 (≈ 4.9 µg/mL) | 2.04 | – | IC50 [2]: > 31.6 µM; IC50 [9]: > 31.6 µM; IC50 [10]: > 31.6 µM
C[C@H](CO)CN1[C@H](c2ccc(/C=C/C(=O)O)cc2)c2[nH]c3ccccc3c2C[C@H]1C | 21 | 1.6 | > 100 | 0.0468 | 26 | 0.091 | > 1400 | 0.0692 | 0.0224 | fraction unbound [13]: 0.046
CC/C(=C(\c1ccc(O)cc1)c1ccc(/C=C/C(=O)O)cc1)c1ccccc1 | – | – | > 31.6 | – | – | – | – | – | – | percent agonist activity [14]: inactive
C[C@@H]1Cc2c([nH]c3ccccc23)[C@@H](c2ccc(Cl)cc2)N1CCO | – | – | > 100 | 0.0851 | – | – | – | 0.0398 | 13.8 | percent agonist activity [14]: 15%
O=C(O)CCN1CCc2c([nH]c3ccccc23)C1c1ccc(Cl)cc1 (racemic) | 29 | 1.6 | > 31.6 | 3.72 | 19 | 0.072 | > 1600 | 13.8 | – | clearance [15]: 0.24 L/h/kg; bioavailability [16]: 85%; Vd [17]: 0.6 L/kg
CCC(=C(c1ccc(O)cc1)c1ccc(OCCN(C)C)cc1)c1ccccc1 | – | – | > 100 | – | – | – | – | – | 0.000537 | –
C[C@@H]1Cc2c([nH]c3ccc(O)cc23)[C@@H](c2ccc(Cl)cc2)N1CCO | – | – | 0.0331 | 0.0437 | – | – | – | 0.0224 | > 31.6 | –
C[C@]12CC[C@@H]3c4ccc(O)cc4C[C@@H](CCCCCCCCC[S+]([O-])CCCC(F)(F)C(F)(F)F)[C@H]3[C@@H]1CC[C@@H]2O (some centres not stated) [FULVESTRANT] | – | – | > 100 | – | – | – | – | – | 0.0001 | –
